Legend:
CYP3A4 [1] = biological target: T1, CYP3A4 (Homo sapiens, UniProt P08684); experiment: Time dependent inhibition of CYP3A4 in human liver microsomes assessed as remaining enzyme activity by measuring midazolam to 1'-hydroxymidazolam conversion at 5 uM pre-incubated for 30 mins before midazolam addition by LC-MS/MS method; format: ADME; conditions: probe midazolam (conversion to 1'-hydroxymidazolam), read-out: Activity
[2] = biological target: T2, Tyrosine-protein kinase JAK3 (Homo sapiens, UniProt P52333)
T2 sequence (P52333 whole entry): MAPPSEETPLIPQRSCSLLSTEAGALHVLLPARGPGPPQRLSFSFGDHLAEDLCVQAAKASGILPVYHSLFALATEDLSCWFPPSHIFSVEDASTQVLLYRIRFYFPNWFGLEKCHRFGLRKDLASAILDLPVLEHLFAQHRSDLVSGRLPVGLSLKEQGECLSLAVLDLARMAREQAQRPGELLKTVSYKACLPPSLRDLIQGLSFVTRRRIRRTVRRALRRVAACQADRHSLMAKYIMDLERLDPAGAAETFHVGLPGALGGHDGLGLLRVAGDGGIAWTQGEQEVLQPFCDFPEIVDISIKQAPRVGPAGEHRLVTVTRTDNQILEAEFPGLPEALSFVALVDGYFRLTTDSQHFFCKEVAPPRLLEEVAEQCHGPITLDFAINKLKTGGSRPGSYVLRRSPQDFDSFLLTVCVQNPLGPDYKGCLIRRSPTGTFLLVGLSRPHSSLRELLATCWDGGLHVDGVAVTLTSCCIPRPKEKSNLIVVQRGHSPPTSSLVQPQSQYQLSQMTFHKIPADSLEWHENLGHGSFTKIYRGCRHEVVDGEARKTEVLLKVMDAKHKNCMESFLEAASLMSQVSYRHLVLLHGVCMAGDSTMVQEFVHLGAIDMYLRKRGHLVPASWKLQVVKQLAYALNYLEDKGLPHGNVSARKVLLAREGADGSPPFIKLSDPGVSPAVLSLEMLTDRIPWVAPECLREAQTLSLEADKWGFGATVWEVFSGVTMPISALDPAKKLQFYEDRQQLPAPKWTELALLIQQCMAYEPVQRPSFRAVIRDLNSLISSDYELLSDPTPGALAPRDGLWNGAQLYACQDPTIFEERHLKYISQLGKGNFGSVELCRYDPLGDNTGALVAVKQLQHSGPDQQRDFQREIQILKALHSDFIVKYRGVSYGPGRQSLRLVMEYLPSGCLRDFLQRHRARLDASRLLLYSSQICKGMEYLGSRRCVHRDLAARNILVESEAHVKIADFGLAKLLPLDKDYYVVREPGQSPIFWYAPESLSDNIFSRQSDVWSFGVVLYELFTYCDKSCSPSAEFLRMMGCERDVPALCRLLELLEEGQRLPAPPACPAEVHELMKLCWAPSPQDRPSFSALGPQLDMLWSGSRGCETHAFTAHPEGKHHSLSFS
Description: Inhibition of human JAK3 kinase domain using biotin-Lyn-substrate-2 as substrate and ATP incubated for 1 hr by ELISA method

Liver microsome = conditions: rat, microsomes, 0.5 h, 2 µM
cells = conditions: Rattus norvegicus, Lewis, T-cell, 72 h
Description: Inhibition of JAK1/JAK3 in Lewis rat splenocytes assessed as reduction in IL2-induced T cell proliferation incubated for 3 days by alamar blue assay

[3] = biological target: Tyrosine-protein kinase JAK1 (Homo sapiens, UniProt P23458)
Chain of Tyrosine-protein kinase JAK1 (P23458 whole entry): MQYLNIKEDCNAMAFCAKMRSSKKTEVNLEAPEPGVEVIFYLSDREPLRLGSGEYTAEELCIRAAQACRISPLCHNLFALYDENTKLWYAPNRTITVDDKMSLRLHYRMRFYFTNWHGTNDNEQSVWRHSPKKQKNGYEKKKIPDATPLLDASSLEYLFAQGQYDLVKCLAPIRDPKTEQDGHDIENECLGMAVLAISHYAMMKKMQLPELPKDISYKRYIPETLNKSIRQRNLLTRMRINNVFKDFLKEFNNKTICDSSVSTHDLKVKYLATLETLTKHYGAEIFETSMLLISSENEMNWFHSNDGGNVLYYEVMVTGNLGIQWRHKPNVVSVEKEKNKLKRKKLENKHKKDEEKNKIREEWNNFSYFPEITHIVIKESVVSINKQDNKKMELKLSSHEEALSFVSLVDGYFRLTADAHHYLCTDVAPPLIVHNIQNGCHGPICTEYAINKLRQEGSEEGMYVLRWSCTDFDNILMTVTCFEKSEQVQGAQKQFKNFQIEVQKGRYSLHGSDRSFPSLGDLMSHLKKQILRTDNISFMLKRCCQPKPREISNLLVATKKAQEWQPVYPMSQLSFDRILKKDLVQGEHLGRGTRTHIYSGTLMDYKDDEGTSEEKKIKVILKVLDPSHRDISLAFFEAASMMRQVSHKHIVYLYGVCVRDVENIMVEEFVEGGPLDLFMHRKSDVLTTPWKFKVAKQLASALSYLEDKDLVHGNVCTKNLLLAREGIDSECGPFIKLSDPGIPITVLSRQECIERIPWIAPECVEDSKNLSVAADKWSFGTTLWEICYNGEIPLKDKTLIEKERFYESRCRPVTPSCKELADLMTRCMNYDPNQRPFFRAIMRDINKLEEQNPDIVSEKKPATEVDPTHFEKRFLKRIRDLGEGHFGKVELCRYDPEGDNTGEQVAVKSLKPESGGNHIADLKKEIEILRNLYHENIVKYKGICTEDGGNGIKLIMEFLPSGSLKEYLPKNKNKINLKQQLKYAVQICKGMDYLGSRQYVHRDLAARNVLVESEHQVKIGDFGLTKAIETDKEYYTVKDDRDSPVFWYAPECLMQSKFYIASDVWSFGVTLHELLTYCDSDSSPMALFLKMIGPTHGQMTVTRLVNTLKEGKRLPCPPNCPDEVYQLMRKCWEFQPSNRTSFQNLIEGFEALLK
Description: Inhibition of human JAK1 kinase domain using biotin-Lyn-substrate-2 as substrate and ATP incubated for 1 hr by ELISA method

[4] = biological target: Tyrosine-protein kinase JAK2 (Homo sapiens, UniProt O60674)
Chain of Tyrosine-protein kinase JAK2 (O60674 whole entry): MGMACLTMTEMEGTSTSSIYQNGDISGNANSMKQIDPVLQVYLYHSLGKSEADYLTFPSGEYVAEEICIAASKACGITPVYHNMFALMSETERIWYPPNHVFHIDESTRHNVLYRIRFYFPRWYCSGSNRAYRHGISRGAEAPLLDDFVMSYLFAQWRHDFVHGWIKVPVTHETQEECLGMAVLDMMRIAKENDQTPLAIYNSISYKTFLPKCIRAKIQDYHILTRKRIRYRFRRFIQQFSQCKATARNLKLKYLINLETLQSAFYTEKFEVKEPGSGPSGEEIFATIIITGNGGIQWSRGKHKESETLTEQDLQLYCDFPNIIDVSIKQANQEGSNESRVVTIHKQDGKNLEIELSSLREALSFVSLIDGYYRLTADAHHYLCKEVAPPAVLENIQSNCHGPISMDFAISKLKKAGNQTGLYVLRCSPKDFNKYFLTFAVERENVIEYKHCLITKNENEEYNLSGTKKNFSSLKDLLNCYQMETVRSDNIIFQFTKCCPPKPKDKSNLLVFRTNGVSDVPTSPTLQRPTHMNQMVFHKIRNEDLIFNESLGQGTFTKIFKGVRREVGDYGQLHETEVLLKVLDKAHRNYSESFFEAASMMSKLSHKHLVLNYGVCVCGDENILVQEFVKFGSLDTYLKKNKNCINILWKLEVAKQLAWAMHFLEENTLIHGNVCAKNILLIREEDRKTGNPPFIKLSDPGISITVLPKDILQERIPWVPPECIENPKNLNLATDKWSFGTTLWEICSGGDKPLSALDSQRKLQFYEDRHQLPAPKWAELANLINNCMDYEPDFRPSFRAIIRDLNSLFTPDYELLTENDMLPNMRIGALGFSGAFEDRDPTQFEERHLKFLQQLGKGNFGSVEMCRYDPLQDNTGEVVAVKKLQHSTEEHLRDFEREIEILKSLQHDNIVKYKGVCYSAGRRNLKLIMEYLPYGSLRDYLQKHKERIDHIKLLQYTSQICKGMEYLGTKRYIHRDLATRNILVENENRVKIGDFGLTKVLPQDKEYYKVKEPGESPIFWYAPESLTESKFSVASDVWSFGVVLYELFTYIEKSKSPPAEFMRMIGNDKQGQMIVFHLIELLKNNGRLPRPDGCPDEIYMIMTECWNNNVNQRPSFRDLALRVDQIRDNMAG
Description: Inhibition of human JAK2 kinase domain using biotin-Lyn-substrate-2 as substrate and ATP incubated for 1 hr by ELISA method

in vitro = conditions: Sprague-Dawley, rat, liver microsomes
CYP3A4 [5] = biological target: T1, CYP3A4; experiment: Reversible inhibition of CYP3A4 in human liver microsomes assessed as remaining enzyme activity by measuring midazolam to 1'-hydroxymidazolam conversion at 5 uM pre-incubated for 30 mins before midazolam addition by LC-MS/MS method; format: ADME; conditions: probe midazolam (conversion to 1'-hydroxymidazolam), read-out: Activity

T1 sequence (P08684 whole entry): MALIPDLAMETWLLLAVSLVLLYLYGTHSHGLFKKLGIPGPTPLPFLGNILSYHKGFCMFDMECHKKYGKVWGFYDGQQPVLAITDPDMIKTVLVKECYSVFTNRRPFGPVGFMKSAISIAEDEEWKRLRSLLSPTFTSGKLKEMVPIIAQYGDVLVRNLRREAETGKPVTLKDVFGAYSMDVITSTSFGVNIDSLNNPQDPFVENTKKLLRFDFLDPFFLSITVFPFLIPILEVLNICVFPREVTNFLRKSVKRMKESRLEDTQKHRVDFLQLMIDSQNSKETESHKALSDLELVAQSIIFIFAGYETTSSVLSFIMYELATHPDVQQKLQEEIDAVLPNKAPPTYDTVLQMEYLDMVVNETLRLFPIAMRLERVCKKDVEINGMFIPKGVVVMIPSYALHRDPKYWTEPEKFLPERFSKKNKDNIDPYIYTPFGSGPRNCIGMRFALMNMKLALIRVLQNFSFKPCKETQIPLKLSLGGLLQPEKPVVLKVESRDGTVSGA

| activity at 30 min, 5 µM (CYP3A4 [1]) | IC50 [2] | CLH (Liver microsome) | IC50 (cells) | IC50 [3] | IC50 [4] | CLint scaled at 0.5 h, 2 µM (in vitro) | activity at 30 min, 5 µM (CYP3A4 [5]) | Compound |
| --- | --- | --- | --- | --- | --- | --- | --- | --- |
|  | 0.022 µM |  | 0.074 µM | 0.03 µM | 0.023 µM | 16.3 L/h/kg |  | O=c1[nH]c2cnc3[nH]ccc3c2n1C1CCCCCC1 |
|  | 0.18 µM |  |  | 0.11 µM | 0.097 µM |  |  | O=c1[nH]c2cnc3[nH]ccc3c2n1C1CCCC1 |
|  | 0.054 µM |  | 0.16 µM | 0.079 µM | 0.043 µM | 9.18 L/h/kg |  | O=c1[nH]c2cnc3[nH]ccc3c2n1C1CCCCC1 |
|  | 0.069 µM |  | 0.11 µM | 0.09 µM | 0.085 µM |  |  | CC1(C)CCCCC1n1c(=O)[nH]c2cnc3[nH]ccc3c21 (centres undefined) |
|  | 0.021 µM |  | 1 µM | 0.43 µM | 0.023 µM |  |  | CC1CCCC(n2c(=O)[nH]c3cnc4[nH]ccc4c32)C1 (centres undefined) |
|  | 1.2 µM |  | 2.8 µM |  | 1.3 µM |  |  | O=c1[nH]c2cnc3[nH]ccc3c2n1C1CCNCC1 |
|  | 0.027 µM |  | 0.11 µM | 0.028 µM | 0.017 µM |  |  | C[C@H]1CCCC[C@H]1n1c(=O)[nH]c2cnc3[nH]ccc3c21 |
|  | 0.042 µM |  | 0.12 µM | 0.024 µM | 0.023 µM |  |  | CC1CCC(n2c(=O)[nH]c3cnc4[nH]ccc4c32)CC1 (centres undefined) |
|  | 0.003 µM |  | 0.036 µM | 0.018 µM | 0.0036 µM | > 60 L/h/kg |  | CC[C@@H]1CCCC[C@@H]1n1c(=O)[nH]c2cnc3[nH]ccc3c21 |
| 49% |  |  | 0.032 µM | 0.014 µM | 0.0044 µM | 18 L/h/kg | 95% | C[C@@H]1CCCC[C@@H]1n1c(=O)[nH]c2cnc3[nH]ccc3c21 |

Continued, compound first:

| Compound | activity at 30 min, 5 µM (CYP3A4 [1]) | IC50 [2] | CLH (Liver microsome) | IC50 (cells) | IC50 [3] | IC50 [4] | CLint scaled at 0.5 h, 2 µM (in vitro) | activity at 30 min, 5 µM (CYP3A4 [5]) |
| --- | --- | --- | --- | --- | --- | --- | --- | --- |
| O=c1[nH]c2cnc3[nH]ccc3c2n1C1CCOCC1 | 90% | 0.27 µM | Stable | 1.4 µM | 0.52 µM |  |  |  |
| C[C@@H]1CCN(C(=O)CC#N)C[C@@H]1n1c(=O)[nH]c2cnc3[nH]ccc3c21 (racemic) | 86% | 0.0011 µM | Stable | 0.036 µM | 0.0015 µM | 0.0026 µM |  |  |
| CN(c1ccnc2[nH]ccc12)C1CCCCC1 |  | 1.1 µM |  |  | 2.9 µM | 1.8 µM |  |  |
| C[C@@H]1CCN(C(=O)CC#N)C[C@@H]1n1c(=O)n(C)c2cnc3[nH]ccc3c21 (racemic) |  | 0.005 µM |  | 0.158 µM | 0.029 µM | 0.0073 µM |  |  |
| N#CCC(=O)N1CCC[C@@H](n2c(=O)[nH]c3cnc4[nH]ccc4c32)C1 |  | 0.028 µM |  | 0.31 µM | 0.02 µM | 0.017 µM |  |  |
| CS(=O)(=O)N1CCC(n2c(=O)[nH]c3cnc4[nH]ccc4c32)CC1 |  | 0.71 µM |  |  | 0.14 µM | 0.14 µM |  |  |
| CS(=O)(=O)N1CCC[C@@H](n2c(=O)[nH]c3cnc4[nH]ccc4c32)C1 |  | 0.063 µM |  | 1.7 µM | 0.23 µM | 0.082 µM |  |  |
| O=c1[nH]c2cnc3[nH]ccc3c2n1CC1CCCCC1 |  | 0.06 µM |  | 0.86 µM | 1 µM | 0.088 µM | 48.1 L/h/kg |  |
| CS(=O)(=O)N1CCC[C@H](n2c(=O)[nH]c3cnc4[nH]ccc4c32)C1 |  | 0.46 µM |  |  |  | 0.85 µM |  |  |
